Patent US6452014B1, “Telomerase inhibitors and methods of their use” (Geron Corporation, priority 2000, dated 2002)
Where “and” joins values, the source holds several entries; their conditions need not be identical. Identical values can stand only once.

Biological target: T1, partially purified telomerase from a nuclear extract of HEK293 cells (Homo sapiens, UniProt O14746)
T1 construct: partially purified telomerase from a nuclear extract of HEK293 cells; endogenous in cells; host or cells: HEK293 cells (nuclear extract, partially purified)
T1 sequence (O14746 whole entry): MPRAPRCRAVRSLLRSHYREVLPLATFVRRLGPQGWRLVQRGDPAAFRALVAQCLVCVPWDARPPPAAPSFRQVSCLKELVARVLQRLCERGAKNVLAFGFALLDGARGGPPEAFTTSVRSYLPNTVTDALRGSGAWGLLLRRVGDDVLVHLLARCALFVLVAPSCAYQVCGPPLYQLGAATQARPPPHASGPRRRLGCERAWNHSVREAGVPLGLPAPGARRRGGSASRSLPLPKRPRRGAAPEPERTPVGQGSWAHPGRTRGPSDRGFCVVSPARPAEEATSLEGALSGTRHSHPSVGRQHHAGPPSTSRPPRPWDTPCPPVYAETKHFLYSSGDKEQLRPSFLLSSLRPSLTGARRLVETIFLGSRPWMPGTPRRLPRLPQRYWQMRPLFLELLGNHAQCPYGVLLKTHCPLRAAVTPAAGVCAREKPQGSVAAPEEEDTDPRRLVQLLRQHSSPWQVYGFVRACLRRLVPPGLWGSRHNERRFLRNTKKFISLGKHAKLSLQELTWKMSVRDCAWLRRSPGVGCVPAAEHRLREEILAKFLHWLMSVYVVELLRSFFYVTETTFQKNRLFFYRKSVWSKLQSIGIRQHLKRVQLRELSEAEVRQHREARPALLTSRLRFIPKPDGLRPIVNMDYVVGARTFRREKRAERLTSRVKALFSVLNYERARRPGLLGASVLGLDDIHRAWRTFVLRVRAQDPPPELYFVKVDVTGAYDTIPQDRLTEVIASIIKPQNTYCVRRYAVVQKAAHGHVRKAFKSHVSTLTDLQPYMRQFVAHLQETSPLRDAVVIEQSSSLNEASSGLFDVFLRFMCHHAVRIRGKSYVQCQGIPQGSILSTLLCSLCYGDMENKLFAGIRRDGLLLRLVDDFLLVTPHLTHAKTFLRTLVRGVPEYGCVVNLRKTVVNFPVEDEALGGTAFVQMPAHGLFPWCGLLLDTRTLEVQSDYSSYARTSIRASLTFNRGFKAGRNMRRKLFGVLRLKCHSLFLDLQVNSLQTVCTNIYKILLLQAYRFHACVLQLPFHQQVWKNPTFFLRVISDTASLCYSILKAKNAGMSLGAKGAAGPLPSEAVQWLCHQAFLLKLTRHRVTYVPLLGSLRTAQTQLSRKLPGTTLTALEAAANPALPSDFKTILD
Test: In vitro telomerase inhibition, membrane hybridization assay (method of U.S. Pat. No. 5,760,062)
Type: biochemical
Details: replicate determinations listed in one cell
Protocol: Alternatively, telomerase inhibitory activity of the compounds was measured in accordance with a known method (U.S. Pat. No. 5,760,062). That is, a dimethyl sulfoxide (DMSO) solution of each agent was mixed with partially purified telomerase from a nuclear extract of HEK293 cells and incubated in the presence of an oligodeoxynucleotide to be used as the substrate and deoxynucleotide triphosphate. The obtained reacted product (DNA having a telomere sequence) was adsorbed on a membrane, and hybridization was carried out using a labeled oligonucleotide probe having a sequence complementary to the telomere sequence. The inhibition ratio was calculated based on the ratio of the signal of label on the membrane in the presence of the agent to the signal of label in the absence of the agent (control). Also, concentration of each agent which inhibits 50% of the enzyme activity based on the control was used as IC50.

SMILES	IC50
Cn1c(/C=C2\SC(=O)NC2=O)ccc1-c1nc2cc(Cl)c(Cl)cc2[nH]1 [Example 33, 2-[2-[(2,4-Dioxothiazolidin-5-ylidene)methyl]-1-methylpyrrol-5-yl]-5,6-dichlorobenzimidazole]	3.18 µM and 2.47 µM
O=C1NC(=O)/C(=C/c2ccc(-c3nc4c(C(F)(F)F)cc(Cl)cc4[nH]3)cc2)S1 [Example 5, 6-Chloro-2-[4-[(2,4-dioxothiazolidin-5-ylidene)methyl]phenyl]-4-(trifluoromethyl)benzimidazole]	4.98 µM and 2.95 µM
CCOC(=O)Cn1c(-c2ccc(/C=C3\SC(=O)NC3=O)cc2)nc2cc(Cl)c(Cl)cc21 [Example 20, Ethyl [5,6-Dichloro-2-[4-[(2,4-dioxothiazolidin-5-ylidene)methyl]phenyl]-benzimidazol-1-yl]acetate]	2.28 µM and 3.26 µM
O=C1NC(=O)/C(=C/c2ccc(-c3nc4cc(Cl)c(Cl)cc4[nH]3)cc2)S1 [Example 1, 5,6-Dichloro-2-[4-[(2,4-dioxothiazolidin-5-ylidene)methyl]phenyl]benzimidazole]	1.86 µM and 1.1 µM and 1.22 µM and 0.85 µM and 1.14 µM
O=C1NC(=O)/C(=C/c2ccc(-c3nc4cc([N+](=O)[O-])ccc4[nH]3)cc2)S1 [Example 4, 2-[4-[(2,4-Dioxothiazolidin-5-ylidene)methyl]phenyl]-5-nitrobenzimidazole]	4.3 µM and 3.69 µM
CN(C)CCn1c(-c2ccc(/C=C3\SC(=O)NC3=O)cc2)nc2cc(Cl)c(Cl)cc21 [Example 21, 5,6-Dichloro-1-(2-dimethyaminoethyl)-2-[4-[(2,4-dioxothiazolidin-5-ylidene)methyl]phenyl]benzimidazole]	19.2 µM and 15.9 µM
O=C1NC(=O)/C(=C/c2cc3cc(-c4nc5cc(Cl)c(Cl)cc5[nH]4)ccc3[nH]2)S1 [Example 46, 5,6-Dichloro-2-[2-[(2,4-dioxothiazolidin-5-ylidene)methyl]indol-5-yl]benzimidazole]	5.4 µM
O=C1NC(=O)C(Cc2ccc(-c3nc4cc(Cl)c(Cl)cc4[nH]3)cc2)S1 (stereo not shown) [Example 28, 2-[4-[(2,4-Dioxothiazolidin-5-yl)methyl]phenyl]-5,6-dichlorobenzimidazole]	14.5 µM and 15 µM
O=C1NC(=O)/C(=C/c2ccc(-c3nc4ccccc4[nH]3)cc2)S1 [Example 2, 2-[4-[(2,4-Dioxothiazolidin-5-ylidene)methyl]phenyl]benzimidazole]	1.05 µM and 1.52 µM

More lines, now with the values ahead:

IC50	SMILES
0.29 µM and 0.55 µM and 0.51 µM	O=C1NC(=O)/C(=C/c2ccc3cc(-c4nc5cc(Cl)c(Cl)cc5[nH]4)ccc3c2)S1 [Example 40, 5,6-Dichloro-2-[6-[(2,4-dioxothiazolidin-5-ylidene)methyl]naphth-2-yl]benzimidazole]
1.61 µM and 1.92 µM	O=C1NC(=O)/C(=C/c2ccc(-c3nc4ccccc4n3Cc3ccc(Cl)c(Cl)c3)cc2)S1 [Example 14, 1-(3,4-Dichlorobenzyl)-2-[4-[(2,4-dioxothiazolidin-5ylidene)methyl]-phenyl]benzimidazole]
1.89 µM and 2.26 µM	O=C1NC(=O)/C(=C/c2cc(Br)c(-c3nc4cc(Cl)c(Cl)cc4[nH]3)s2)S1 [Example 29, 5,6-Dichloro-2-[3-bromo-5-[(2,4-dioxothiazolidin-5-ylidene)methyl]thiophen-2-yl]benzimidazole]
5.44 µM and 6.2 µM	Cc1cc2nc(-c3ccc(/C=C4\SC(=O)NC4=O)cc3)[nH]c2cc1C [Example 3, 5,6-Dimethyl-2-[4-[(2,4-dioxothiazolidin-5-ylidene)methyl]phenyl]benzimidazole]
3.01 µM and 2.43 µM	Cc1cc2nc(-c3ccc(/C=C4\SC(=O)NC4=O)cc3)n(Cc3ccc(Cl)c(Cl)c3)c2cc1C [Example 15, 1-(3,4-Dichlorobenzyl)-5,6-dimethyl-2-[4-[(2,4-dioxothiazolidin-5-ylidene)methyl]phenyl]benzimidazole]
0.44 µM and 0.92 µM and 1.01 µM	O=C1NC(=O)/C(=C/c2ccc(-c3nc4cc(Cl)c(Cl)cc4[nH]3)c3ccccc23)S1 [Example 39, 5,6-Dichloro-2-[4-[(2,4-dioxothiazolidin-5-ylidene)methyl]naphth-1-yl]benzimidazole]
1.96 µM and 1.91 µM	O=C1NC(=O)/C(=C/c2ccc(-c3nc4cc(Cl)c(Cl)cc4[nH]3)s2)S1 [Example 32, 5,6-Dichloro-2-[2-[(2,4-dioxothiazolidin-5-ylidene)methyl]thiophen-5-5-yl]benzimidazole]
3.04 µM and 3.35 µM	O=C1NC(=O)/C(=C/c2ccc(-c3nc4cc(C(=O)c5ccccc5)ccc4[nH]3)cc2)S1 [Example 6, 5-Benzoyl-2-[4-[(2,4-dioxothiazolidin-5-ylidene)methyl]phenyl]benzimidazole]
0.61 µM	O=C1NC(=O)/C(=C/c2ccc3[nH]c(-c4nc5cc(Cl)c(Cl)cc5[nH]4)cc3c2)S1 [Example 45, 5,6-Dichloro-2-[5-[(2,4-dioxothiazolidin-5-ylidene)methyl]indol-2-yl]benzimidazole]
5.19 µM and 2.76 µM	O=C1NC(=O)/C(=C/c2ccc(-c3nc4cc(Cl)c(Cl)cc4[nH]3)o2)S1 [Example 30]
